US20250176599A1, “FLAVOR COMPOSITION AND FOOD AND BEVERAGE” (TAKASAGO INTERNATIONAL CORPORATION, priority 2021, published 2025)

Experiments:
[1] = Sensory evaluation of aqueous solution IV containing 1,5-octadien-3-one 100 ppt: off-flavor intensity and masking component intensity; conditions: aqueous solution IV, 1,5-octadien-3-one 100 ppt, average score 0-4
Method in brief: (§1)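 Nootkatone added to degradation-component solutions in ion-exchanged water and scored by eight experienced panelists. Off-flavor rated 0–4 relative to unmasked solution (4) and plain water (0). Masking-component intensity rated on an absolute 0–4 scale.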

[2] = Overall conclusion of the sensory evaluation across aqueous solutions I to VI
Method in brief: as §1

[3] = Sensory evaluation of aqueous solution I containing (E)-2-nonenal 1 ppb: off-flavor intensity and masking component intensity; conditions: (E)-2-nonenal 1 ppb, average score 0-4
Method in brief: as §1

[4] = Sensory evaluation of aqueous solution II containing (E)-2-octenal 10 ppb: off-flavor intensity and masking component intensity; conditions: (E)-2-octenal 10 ppb, average score 0-4
Method in brief: as §1

[5] = Sensory evaluation of degradation component-added soymilk II (1-octen-3-ol 500 ppb); conditions: average panel score
Protocol: (§2) To commercially available soymilk (“Delicious Unadjusted Soymilk” manufactured by Kikkoman Corporation), each degradation component was added to prepare degradation component-added soymilks at the concentrations listed in Table 23. To these degradation component-added soymilks, 1,4-dioxacycloheptadecan-5,17-dione was added at the concentrations listed in Table 23 to confirm the intensity of the off-flavor (masking effect) and the intensity of the masking components (impact on the flavor of the soymilk itself) for each sample.
(§3) Eight experienced panelists were selected to conduct a sensory evaluation similar to that of Example 1. […]

[6] = Sensory evaluation of aqueous solution VI containing 1,5-octadien-3-ol 10 ppb: off-flavor intensity and masking component intensity; conditions: aqueous solution VI, 1,5-octadien-3-ol 10 ppb, average score 0-4
Method in brief: as §1

[7] = Sensory evaluation of aqueous solution V containing 1-octen-3-ol 10 ppb: off-flavor intensity and masking component intensity; conditions: 1-octen-3-ol 10 ppb, average score 0-4
Method in brief: as §1

[8] = Sensory evaluation of degradation component-added soymilk I ((E)-2-nonenal 5 ppb); conditions: average panel score
Protocol: as §2, §3

[9] = Sensory evaluation of aqueous solution III containing 1-octen-3-one 1 ppb: off-flavor intensity and masking component intensity; conditions: 1-octen-3-one 1 ppb, average score 0-4
Method in brief: as §1

[10] = Overall conclusion of the sensory evaluation across soymilks I and II
Protocol: as §2
Eight experienced panelists were selected to conduct a sensory evaluation similar to that of Example 1.
The same method as in Example 20 was used to confirm the intensity of the off-flavor (masking effect) derived from unsaturated fatty acids by α-methyl ionone and the intensity of the masking components (impact on the flavor of the soymilk itself).
The same method as in Example 20 was used to confirm the intensity of the off-flavor (masking effect) derived from unsaturated fatty acids by menthyl 3-hydroxybutyrate and the intensity of the masking components (impact on the flavor of the soymilk itself).

With `O=C1CCCCCCCCCCCC(=O)OCCO1` [1,4-Dioxacycloheptadecan-5,17-Dione, 1,4-dioxacycloheptadecan-5,17-dione] as the compound, how does the “Off-Flavor Intensity” value ([1]; 0.001 ppt added) read?
The value was 3.8 points.

And the “Off-Flavor Intensity” value ([1]; 0.01 ppt added)?
Its value is 3.5 points.

What about the “Off-Flavor Intensity” value ([1]; 0.1 ppt added) of the same compound?
The value was 3.4 points.

What about the “Off-Flavor Intensity” value ([1]; 1 ppb added) of the same compound?
The value was 2.1 points.

What about the “Off-Flavor Intensity” value ([1]; 1 ppt added) of the same compound?
The value was 3.0 points.

And the “Off-Flavor Intensity” value ([1]; 10 ppb added)?
Its value is 1.6 points.

What about the “Off-Flavor Intensity” value ([1]; 10 ppt added) of the same compound?
Its value is 2.9 points.

What about the “Off-Flavor Intensity” value ([1]; 100 ppb added) of the same compound?
Its value is 1.0 points.

What about the “Off-Flavor Intensity” value ([1]; 100 ppt added) of the same compound?
Its value is 2.8 points.

And the “concentration that masks the off-flavor and does not affect the flavor of the food and/or beverage itself, lower limit” value [2]?
Its value is ≥ 0.01 ppt.

And the “concentration that masks the off-flavor and does not affect the flavor of the food and/or beverage itself, upper limit” value [2]?
The value was ≤ 10 ppb.

And the “Off-Flavor Intensity” value ([3]; 0.001 ppt added)?
The value was 3.5 points.

And the “Off-Flavor Intensity” value ([3]; 0.01 ppt added)?
The value was 3.3 points.

What about the “Off-Flavor Intensity” value ([3]; 0.1 ppt added) of the same compound?
The value was 2.9 points.

What about the “Off-Flavor Intensity” value ([3]; 1 ppb added) of the same compound?
The value was 1.6 points.

And the “Off-Flavor Intensity” value ([3]; 1 ppt added)?
Its value is 2.8 points.

What about the “Off-Flavor Intensity” value ([3]; 10 ppb added) of the same compound?
The value was 1.0 points.

What about the “Off-Flavor Intensity” value ([3]; 10 ppt added) of the same compound?
The value was 2.3 points.

What about the “Off-Flavor Intensity” value ([3]; 100 ppb added) of the same compound?
Its value is 0.3 points.

What about the “Off-Flavor Intensity” value ([3]; 100 ppt added) of the same compound?
The value was 2.0 points.

And the “Off-Flavor Intensity” value ([4]; 0.001 ppt added)?
The value was 3.4 points.

And the “Off-Flavor Intensity” value ([4]; 0.01 ppt added)?
The value was 3.4 points.

What about the “Off-Flavor Intensity” value ([4]; 0.1 ppt added) of the same compound?
Its value is 3.1 points.

What about the “Off-Flavor Intensity” value ([4]; 1 ppb added) of the same compound?
Its value is 1.8 points.

What about the “Off-Flavor Intensity” value ([4]; 1 ppt added) of the same compound?
Its value is 2.8 points.

And the “Off-Flavor Intensity” value ([4]; 10 ppb added)?
The value was 1.5 points.

And the “Off-Flavor Intensity” value ([4]; 10 ppt added)?
The value was 2.4 points.

What about the “Off-Flavor Intensity” value ([4]; 100 ppb added) of the same compound?
Its value is 0.6 points.

And the “Off-Flavor Intensity” value ([4]; 100 ppt added)?
Its value is 2.0 points.

And the “Masking Component Intensity” value ([5]; 1 ppb added)?
Its value is 0.9.

And the “Off-Flavor Intensity” value ([5]; 1 ppb added)?
Its value is 1.8.

What about the “Masking Component Intensity” value ([5]; 1 ppm added) of the same compound?
The value was 2.8.

And the “Off-Flavor Intensity” value ([5]; 1 ppm added)?
The value was 0.5.

What about the “Masking Component Intensity” value ([5]; 10 ppb added) of the same compound?
The value was 1.3.

What about the “Off-Flavor Intensity” value ([5]; 10 ppb added) of the same compound?
The value was 1.3.

What about the “Masking Component Intensity” value ([5]; 10 ppt added) of the same compound?
Its value is 0.4.

What about the “Off-Flavor Intensity” value ([5]; 10 ppt added) of the same compound?
Its value is 2.5.

And the “Masking Component Intensity” value ([5]; 100 ppb added)?
Its value is 2.1.

And the “Off-Flavor Intensity” value ([5]; 100 ppb added)?
Its value is 1.0.

And the “Masking Component Intensity” value ([5]; 100 ppt added)?
Its value is 0.5.

And the “Off-Flavor Intensity” value ([5]; 100 ppt added)?
The value was 2.0.

And the “Off-Flavor Intensity” value ([6]; 0.001 ppt added)?
Its value is 3.3 points.

What about the “Off-Flavor Intensity” value ([6]; 0.01 ppt added) of the same compound?
The value was 3.0 points.

What about the “Off-Flavor Intensity” value ([6]; 0.1 ppt added) of the same compound?
Its value is 2.9 points.

And the “Off-Flavor Intensity” value ([6]; 1 ppb added)?
The value was 1.8 points.

And the “Off-Flavor Intensity” value ([6]; 1 ppt added)?
Its value is 2.5 points.

And the “Off-Flavor Intensity” value ([6]; 10 ppb added)?
The value was 1.4 points.

And the “Off-Flavor Intensity” value ([6]; 10 ppt added)?
Its value is 2.5 points.

What about the “Off-Flavor Intensity” value ([6]; 100 ppb added) of the same compound?
The value was 0.9 points.

What about the “Off-Flavor Intensity” value ([6]; 100 ppt added) of the same compound?
Its value is 2.1 points.

And the “Off-Flavor Intensity” value ([7]; 0.001 ppt added)?
Its value is 3.4 points.

What about the “Off-Flavor Intensity” value ([7]; 0.01 ppt added) of the same compound?
Its value is 3.1 points.

And the “Off-Flavor Intensity” value ([7]; 0.1 ppt added)?
Its value is 2.9 points.

And the “Off-Flavor Intensity” value ([7]; 1 ppb added)?
The value was 1.9 points.

What about the “Off-Flavor Intensity” value ([7]; 1 ppt added) of the same compound?
Its value is 2.8 points.

What about the “Off-Flavor Intensity” value ([7]; 10 ppb added) of the same compound?
The value was 1.4 points.

And the “Off-Flavor Intensity” value ([7]; 10 ppt added)?
The value was 2.5 points.

What about the “Off-Flavor Intensity” value ([7]; 100 ppb added) of the same compound?
The value was 0.5 points.

What about the “Off-Flavor Intensity” value ([7]; 100 ppt added) of the same compound?
Its value is 2.1 points.

And the “Masking Component Intensity” value ([8]; 1 ppb added)?
Its value is 0.3.

What about the “Off-Flavor Intensity” value ([8]; 1 ppb added) of the same compound?
Its value is 2.3.

And the “Masking Component Intensity” value ([8]; 1 ppm added)?
Its value is 2.6.

And the “Off-Flavor Intensity” value ([8]; 1 ppm added)?
The value was 0.6.

And the “Masking Component Intensity” value ([8]; 10 ppb added)?
Its value is 1.0.

What about the “Off-Flavor Intensity” value ([8]; 10 ppb added) of the same compound?
The value was 1.8.

What about the “Masking Component Intensity” value ([8]; 10 ppt added) of the same compound?
Its value is 0.0.

And the “Off-Flavor Intensity” value ([8]; 10 ppt added)?
Its value is 3.0.

And the “Masking Component Intensity” value ([8]; 100 ppb added)?
The value was 1.9.

What about the “Off-Flavor Intensity” value ([8]; 100 ppb added) of the same compound?
Its value is 1.0.

What about the “Masking Component Intensity” value ([8]; 100 ppt added) of the same compound?
Its value is 0.0.

What about the “Off-Flavor Intensity” value ([8]; 100 ppt added) of the same compound?
Its value is 2.9.

What about the “Off-Flavor Intensity” value ([9]; 0.001 ppt added) of the same compound?
The value was 3.6 points.

What about the “Off-Flavor Intensity” value ([9]; 0.01 ppt added) of the same compound?
The value was 3.4 points.

And the “Off-Flavor Intensity” value ([9]; 0.1 ppt added)?
Its value is 3.0 points.

What about the “Off-Flavor Intensity” value ([9]; 1 ppb added) of the same compound?
The value was 1.4 points.

And the “Off-Flavor Intensity” value ([9]; 1 ppt added)?
Its value is 2.6 points.

And the “Off-Flavor Intensity” value ([9]; 10 ppb added)?
Its value is 1.0 points.

And the “Off-Flavor Intensity” value ([9]; 10 ppt added)?
Its value is 2.4 points.

And the “Off-Flavor Intensity” value ([9]; 100 ppb added)?
The value was 0.3 points.

And the “Off-Flavor Intensity” value ([9]; 100 ppt added)?
The value was 1.8 points.

And the “concentration that masks the off-flavor and does not affect the flavor of the soymilk itself, lower limit” value [10]?
Its value is ≥ 10 ppt.

And the “concentration that masks the off-flavor and does not affect the flavor of the soymilk itself, upper limit” value [10]?
Its value is ≤ 1 ppm.
